Measurements as given in BindingDB's records for doi:10.1021/acsmedchemlett.0c00444 (Virginia Commonwealth University, 2020).

Experiment: Inhibition of HIV1 3B reverse transcriptase infected in human GHOST CXCR4 cells assessed as reduction in viral replication incubated for 60 to 90 mins in presence of DTT and TTP by liquid scintillation counter

EC50 [nM] | Compound
144000 | CNC(=O)COCC(=O)NCCCCNC(=O)COCC(=O)NC[C@H]1CC[C@H](/N=C(\NC2CCCCC2)SCC2=CSC3=NC(C)(C)CN23)CC1
22 | CC1(C)CN2C(CS/C(=N\C3CCCCC3)NC3CCCCC3)=CSC2=N1 [(6,6-dimethyl-5,6-dihydroimidazo[2,1-b][1,3]thiazol-3-yl)methyl N,N'-dicyclohexylimidothiocarbamate]

Compound | EC50 [nM]
CC1(C)CN2C(CS/C(N)=N\[C@H]3CC[C@H](CNC(=O)COCC(=O)NCCCCNC(=O)COCC(=O)N[C@@H]4CC[C@@]5(O)[C@H]6Cc7ccc(O)c8c7[C@@]5(CCN6CC5CC5)[C@H]4O8)CC3)=CSC2=N1 | 960
